Source: patent EP1935887A1, “Heterocyclic substituted carbonyl derivatives and their use as dopamine D3 receptor ligands” (Aventis Pharmaceuticals Inc., priority 2001, dated 2002)

target: T1, Cloned Human Dopamine D3 Receptors (Homo sapiens, UniProt P35462); experiment: [N-Methyl-3H]Spiroperidol binding to cloned human dopamine D3 receptors; conditions: Table 2; unit inferred; read-out: d3Ki
T1 construct: expressed in transfected cells; membrane homogenate
Outline: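 Membranes from CHO cells stably expressing human D3 receptor, homogenised in 10% DMSO and stored at -80°C. Binding uses [N-methyl-3H]spiroperidol in Tris buffer, pH 7.7.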

T1 sequence (P35462 whole entry): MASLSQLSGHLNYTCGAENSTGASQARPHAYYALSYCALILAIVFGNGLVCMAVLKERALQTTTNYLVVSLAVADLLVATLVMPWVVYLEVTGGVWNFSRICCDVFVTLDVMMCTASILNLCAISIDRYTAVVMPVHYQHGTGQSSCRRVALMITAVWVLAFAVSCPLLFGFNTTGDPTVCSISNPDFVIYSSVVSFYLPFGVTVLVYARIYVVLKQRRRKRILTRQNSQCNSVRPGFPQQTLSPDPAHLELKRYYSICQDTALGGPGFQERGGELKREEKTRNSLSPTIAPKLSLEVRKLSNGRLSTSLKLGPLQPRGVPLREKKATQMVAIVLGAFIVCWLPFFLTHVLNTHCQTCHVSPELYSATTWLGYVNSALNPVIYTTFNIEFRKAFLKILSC

| SMILES | Ki |
| --- | --- |
| C[C@H]1CC[C@H](NC(=O)[C@@H]2C[C@H]2CN2CCN(Cc3ccc4c(c3)OCO4)CC2)CC1 [compound 827201] | 126 nM |
| C[C@H]1CC[C@H](NC(=O)[C@@H]2C[C@H]2CN2CCN(c3cccc4cccnc34)CC2)CC1 [compound 827253] | 15.8 nM |
| Cc1ccc(N2CCCN(C[C@@H]3C[C@H]3C(=O)N[C@H]3CC[C@H](C)CC3)CC2)nc1 [compound 827731] | 19.5 nM |

Further lines, results first:

| Ki | SMILES |
| --- | --- |
| 2.35 nM | CC1CCC(NC(=O)C2CC2CN2CCN(c3ccc(F)cc3)CC2)CC1 (stereo not shown) [compound 827196] |
| 161 nM | C[C@H]1CC[C@H](NC(=O)[C@@H]2C[C@H]2CN2CCN(CCc3ccccc3)CC2)CC1 [compound 827198] |

same assay, conditions: read-out: D3 Ki

| Ki | SMILES |
| --- | --- |
| 237 nM | CC(C)(C)OC(=O)N1CCN(C[C@@H]2C[C@H]2C(=O)N[C@H]2CC[C@H](C)CC2)CC1 [compound 827184] |
| 16.1 nM | CC[C@H]1CC[C@H](NC(=O)[C@@H]2C[C@H]2CN2CCN(c3cnccn3)CC2)CC1 [compound 827226] |
| 1.71 nM | CC[C@H]1CC[C@H](NC(=O)[C@@H]2C[C@H]2CN2CCN(c3cccc(C(F)(F)F)c3)CC2)CC1 [compound 827229] |

same assay, conditions: read-out: d3Ki

| SMILES | Ki |
| --- | --- |
| C[C@H]1CC[C@H](NC(=O)[C@@H]2C[C@H]2CN2CCN(c3ccc(C(F)(F)F)cc3Cl)CC2)CC1 [compound 827181] | 97.2 nM |
| C[C@H]1CC[C@H](NC(=O)[C@@H]2C[C@H]2CN2CCN(c3ccc(C(F)(F)F)cn3)CC2)CC1 [compound 827182] | 73 nM |
| C[C@H]1CC[C@H](NC(=O)[C@@H]2C[C@H]2CN2CCN(c3ncccc3C(F)(F)F)CC2)CC1 [compound 827183] | 3.29 nM |
| C[C@H]1CC[C@H](NC(=O)[C@@H]2C[C@H]2CN2CCN(c3ccc(Cl)c(Cl)c3)CC2)CC1 [compound 827185] | 4.89 nM |
| Cc1ccc(C)c(N2CCN(C[C@@H]3C[C@H]3C(=O)N[C@H]3CC[C@H](C)CC3)CC2)c1 [compound 827186] | 8.21 nM |
| C[C@H]1CC[C@H](NC(=O)[C@@H]2C[C@H]2CN2CCN(c3cnccn3)CC2)CC1 [compound 827187] | 10.6 nM |
| Cc1ccc(N2CCN(C[C@@H]3C[C@H]3C(=O)N[C@H]3CC[C@H](C)CC3)CC2)c(C)c1 [compound 827193] | 40.6 nM |
| CC1CCC(NC(=O)C2CC2CN2CCN(c3ncccn3)CC2)CC1 (stereo not shown) [compound 827197] | 27.6 nM |
| C[C@H]1CC[C@H](NC(=O)[C@@H]2C[C@H]2CN2CCN(c3ccc(Cl)c(C(F)(F)F)c3)CC2)CC1 [compound 827199] | 4.34 nM |
| Cc1cccc(C)c1N1CCN(C[C@@H]2C[C@H]2C(=O)N[C@H]2CC[C@H](C)CC2)CC1 [compound 827200] | 119 nM |
| C[C@H]1CC[C@H](NC(=O)[C@@H]2C[C@H]2CN2CCN(c3ccc([N+](=O)[O-])cc3)CC2)CC1 [compound 827205] | 200 nM |
| CC(=O)c1ccc(N2CCN(C[C@@H]3C[C@H]3C(=O)N[C@H]3CC[C@H](C)CC3)CC2)cc1 [compound 827206] | 59.7 nM |
| CC[C@H]1CC[C@H](NC(=O)[C@@H]2C[C@H]2CN2CCN(c3cccc(Cl)c3)CC2)CC1 [compound 827212] | 1.2 nM |
| CC[C@H]1CC[C@H](NC(=O)[C@@H]2C[C@H]2CN2CCN(c3ccc(C)cc3)CC2)CC1 [compound 827213] | 11.1 nM |
| CC[C@H]1CC[C@H](NC(=O)[C@@H]2C[C@H]2CN2CCN(c3ccccn3)CC2)CC1 [compound 827214] | 6.13 nM |
| CCOc1ccccc1N1CCN(C[C@@H]2C[C@H]2C(=O)N[C@H]2CC[C@H](CC)CC2)CC1 [compound 827215] | 0.229 nM |
| CC[C@H]1CC[C@H](NC(=O)[C@@H]2C[C@H]2CN2CCN(c3ccccc3Cl)CC2)CC1 [compound 827216] | 2.16 nM |
| CC[C@H]1CC[C@H](NC(=O)[C@@H]2C[C@H]2CN2CCN(c3ccccc3OC)CC2)CC1 [compound 827218] | 1.22 nM |
| CC[C@H]1CC[C@H](NC(=O)[C@@H]2C[C@H]2CN2CCN(c3cccc(C)c3)CC2)CC1 [compound 827219] | 2.63 nM |
| CC[C@H]1CC[C@H](NC(=O)[C@@H]2C[C@H]2CN2CCN(c3ccc(C(F)(F)F)cn3)CC2)CC1 [compound 827221] | 99.2 nM |
| CC[C@H]1CC[C@H](NC(=O)[C@@H]2C[C@H]2CN2CCN(c3cnccn3)CC2)CC1 [compound 827226] | 16.1 nM |
| CC[C@H]1CC[C@H](NC(=O)[C@@H]2C[C@H]2CN2CCN(C(=O)c3ccco3)CC2)CC1 [compound 827228] | 62 nM |
| CC[C@H]1CC[C@H](NC(=O)[C@@H]2C[C@H]2CN2CCN(c3cccc(C(F)(F)F)c3)CC2)CC1 [compound 827229] | 1.71 nM |
| CC[C@H]1CC[C@H](NC(=O)[C@@H]2C[C@H]2CN2CCN(c3ccc(OC)cc3)CC2)CC1 [compound 827233] | 27.7 nM |
| CC[C@H]1CC[C@H](NC(=O)[C@@H]2C[C@H]2CN2CCN(c3cccc(OC)c3)CC2)CC1 [compound 827234] | 3.15 nM |
| CC[C@H]1CC[C@H](NC(=O)[C@@H]2C[C@H]2CN2CCN(c3ccc(F)cc3)CC2)CC1 [compound 827235] | 4.49 nM |
| CC[C@H]1CC[C@H](NC(=O)[C@@H]2C[C@H]2CN2CCN(c3ncccn3)CC2)CC1 [compound 827236] | 12.9 nM |
| CC[C@H]1CC[C@H](NC(=O)[C@@H]2C[C@H]2CN2CCN(c3ccc(Cl)c(C(F)(F)F)c3)CC2)CC1 [compound 827238] | 2.48 nM |
| CC[C@H]1CC[C@H](NC(=O)[C@@H]2C[C@H]2CN2CCN(c3ccc([N+](=O)[O-])cc3)CC2)CC1 [compound 827244] | 197 nM |
| CC[C@H]1CC[C@H](NC(=O)[C@@H]2C[C@H]2CN2CCN(c3ccc(C(C)=O)cc3)CC2)CC1 [compound 827245] | 43 nM |

Further lines, results first:

| Ki | SMILES |
| --- | --- |
| 2.78 nM | C[C@H]1CC[C@H](NC(=O)[C@@H]2C[C@H]2CN2CCN(c3cccc(Cl)c3)CC2)CC1 [compound 827173] |
| 8.7 nM | Cc1ccc(N2CCN(C[C@@H]3C[C@H]3C(=O)N[C@H]3CC[C@H](C)CC3)CC2)cc1 [compound 827174] |
| 4 nM | C[C@H]1CC[C@H](NC(=O)[C@@H]2C[C@H]2CN2CCN(c3ccccn3)CC2)CC1 [compound 827175] |
| 1.18 nM | CCOc1ccccc1N1CCN(C[C@@H]2C[C@H]2C(=O)N[C@H]2CC[C@H](C)CC2)CC1 [compound 827176] |
| 1 nM | C[C@H]1CC[C@H](NC(=O)[C@@H]2C[C@H]2CN2CCN(c3ccccc3Cl)CC2)CC1 [compound 827177] |
| 12.4 nM | C[C@H]1CC[C@H](NC(=O)[C@@H]2C[C@H]2CN2CCN(c3ccc(Cl)cc3)CC2)CC1 [compound 827178] |
| 1.04 nM | COc1ccccc1N1CCN(C[C@@H]2C[C@H]2C(=O)N[C@H]2CC[C@H](C)CC2)CC1 [compound 827179] |
| 2.47 nM | Cc1cccc(N2CCN(C[C@@H]3C[C@H]3C(=O)N[C@H]3CC[C@H](C)CC3)CC2)c1 [compound 827180] |
| 126 nM | C[C@H]1CC[C@H](NC(=O)[C@@H]2C[C@H]2CN2CCN(c3ccco3)CC2)CC1 [compound 827189] |
| 2.42 nM | C[C@H]1CC[C@H](NC(=O)[C@@H]2C[C@H]2CN2CCN(c3cccc(C(F)(F)F)c3)CC2)CC1 [compound 827190] |
| 0.724 nM | C[C@H]1CC[C@H](NC(=O)[C@@H]2C[C@H]2CN2CCN(c3ccccc3)CC2)CC1 [compound 827191] |
| 24.4 nM | COc1ccc(N2CCN(C[C@@H]3C[C@H]3C(=O)N[C@H]3CC[C@H](C)CC3)CC2)cc1 [compound 827194] |
| 8.18 nM | COc1cccc(N2CCN(C[C@@H]3C[C@H]3C(=O)N[C@H]3CC[C@H](C)CC3)CC2)c1 [compound 827195] |
| 2.09 nM | CC[C@H]1CC[C@H](NC(=O)[C@@H]2C[C@H]2CN2CCN(c3ccccc3)CC2)CC1 [compound 827230] |
